In one experiment the target is EGFR L858R (Homo sapiens (Human), UniProt P00533, L858R). Nature of the experiment: Biochemical EGFR inhibition assay, EGFR L858R. The conditions noted are these: Caliper mobility shift; 1.0 mM ATP or ATP Km; read-out: Enz EGFR_L858R IC50.
Experiment [1] has as its target pEGFR (Tyr1068) in PC-9 cells (Ex19Del) (Homo sapiens (Human), UniProt P00533, DEL746-750). Nature of the experiment: PC-9 pEGFR AlphaLISA assay. In kind it is cell-based. The note with it: 4 hours incubation, p-EGFR (Tyr1068) AlphaLISA, read-out: Ext pEGFR_PC-9 Ex19Del IC50. The gist of the method:
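PC-9 cells seeded overnight in phenol-free DMEM with 10% FBS, then treated 4 h at 37°C with a 10-point, 4-fold compound series. Lysates assayed for pEGFR Tyr1068 by AlphaLISA SureFire; IC50 from % inhibition vs log concentration.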

In a further experiment the target is EGFR (d746-750) (Homo sapiens (Human), UniProt P00533, DEL746-750). Kind of experiment: Biochemical EGFR inhibition assay, EGFR (d746-750). The note with it: Caliper mobility shift; 1.0 mM ATP or ATP Km; read-out: Enz EGFR_Exon19-del746-750 IC50.

Each structure is given as a SMILES string.

Chain of pEGFR (Tyr1068) in PC-9 cells (Ex19Del) (P00533 other isoform, or with tags, fused parts or gaps del 746-750): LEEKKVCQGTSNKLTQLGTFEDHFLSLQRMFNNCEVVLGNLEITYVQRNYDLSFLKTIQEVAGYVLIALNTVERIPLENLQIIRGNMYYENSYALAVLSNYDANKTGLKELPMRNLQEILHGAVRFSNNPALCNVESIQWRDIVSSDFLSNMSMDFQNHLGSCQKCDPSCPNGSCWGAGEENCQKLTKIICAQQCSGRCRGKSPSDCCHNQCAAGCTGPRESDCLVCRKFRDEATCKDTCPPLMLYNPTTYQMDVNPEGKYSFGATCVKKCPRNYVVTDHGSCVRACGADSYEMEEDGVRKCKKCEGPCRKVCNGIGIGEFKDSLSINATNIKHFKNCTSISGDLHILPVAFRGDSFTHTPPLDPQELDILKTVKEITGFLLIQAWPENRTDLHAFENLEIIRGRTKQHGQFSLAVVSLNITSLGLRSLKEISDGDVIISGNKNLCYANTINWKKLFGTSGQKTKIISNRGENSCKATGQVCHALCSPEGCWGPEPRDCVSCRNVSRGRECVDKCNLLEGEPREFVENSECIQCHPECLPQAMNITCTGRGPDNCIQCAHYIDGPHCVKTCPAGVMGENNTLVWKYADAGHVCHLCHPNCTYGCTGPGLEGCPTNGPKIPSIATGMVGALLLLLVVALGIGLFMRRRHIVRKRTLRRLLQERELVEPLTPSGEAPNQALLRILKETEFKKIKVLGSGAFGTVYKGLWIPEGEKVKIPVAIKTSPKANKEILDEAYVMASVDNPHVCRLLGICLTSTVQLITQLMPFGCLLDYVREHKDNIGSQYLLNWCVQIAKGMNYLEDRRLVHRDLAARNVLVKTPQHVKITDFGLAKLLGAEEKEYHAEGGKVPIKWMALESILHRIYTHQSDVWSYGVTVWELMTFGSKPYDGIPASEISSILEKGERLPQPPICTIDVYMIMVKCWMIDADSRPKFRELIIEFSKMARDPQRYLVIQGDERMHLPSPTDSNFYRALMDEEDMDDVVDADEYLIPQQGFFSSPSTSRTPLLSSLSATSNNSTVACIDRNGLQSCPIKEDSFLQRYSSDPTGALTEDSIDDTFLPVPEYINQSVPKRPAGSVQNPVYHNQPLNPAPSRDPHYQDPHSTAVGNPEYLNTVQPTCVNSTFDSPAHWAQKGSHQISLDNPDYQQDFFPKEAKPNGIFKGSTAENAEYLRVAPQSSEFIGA
Chain of EGFR (d746-750) (P00533 other isoform, or with tags, fused parts or gaps del 1-694/del 746-750 limits assumed): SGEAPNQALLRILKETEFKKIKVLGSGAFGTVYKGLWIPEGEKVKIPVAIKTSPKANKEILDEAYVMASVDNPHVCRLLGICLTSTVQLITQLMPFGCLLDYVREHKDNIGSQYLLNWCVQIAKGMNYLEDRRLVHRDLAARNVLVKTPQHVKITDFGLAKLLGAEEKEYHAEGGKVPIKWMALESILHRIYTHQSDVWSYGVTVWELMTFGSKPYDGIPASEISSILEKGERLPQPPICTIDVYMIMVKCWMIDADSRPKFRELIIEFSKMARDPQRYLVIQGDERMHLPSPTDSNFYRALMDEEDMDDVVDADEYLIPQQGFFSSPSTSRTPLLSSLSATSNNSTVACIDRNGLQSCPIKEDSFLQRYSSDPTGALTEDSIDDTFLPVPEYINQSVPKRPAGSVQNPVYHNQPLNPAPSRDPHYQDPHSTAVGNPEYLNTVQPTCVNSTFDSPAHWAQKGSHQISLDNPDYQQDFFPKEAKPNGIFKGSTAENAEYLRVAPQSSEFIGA
Chain of EGFR L858R (P00533 25-1210 L858R): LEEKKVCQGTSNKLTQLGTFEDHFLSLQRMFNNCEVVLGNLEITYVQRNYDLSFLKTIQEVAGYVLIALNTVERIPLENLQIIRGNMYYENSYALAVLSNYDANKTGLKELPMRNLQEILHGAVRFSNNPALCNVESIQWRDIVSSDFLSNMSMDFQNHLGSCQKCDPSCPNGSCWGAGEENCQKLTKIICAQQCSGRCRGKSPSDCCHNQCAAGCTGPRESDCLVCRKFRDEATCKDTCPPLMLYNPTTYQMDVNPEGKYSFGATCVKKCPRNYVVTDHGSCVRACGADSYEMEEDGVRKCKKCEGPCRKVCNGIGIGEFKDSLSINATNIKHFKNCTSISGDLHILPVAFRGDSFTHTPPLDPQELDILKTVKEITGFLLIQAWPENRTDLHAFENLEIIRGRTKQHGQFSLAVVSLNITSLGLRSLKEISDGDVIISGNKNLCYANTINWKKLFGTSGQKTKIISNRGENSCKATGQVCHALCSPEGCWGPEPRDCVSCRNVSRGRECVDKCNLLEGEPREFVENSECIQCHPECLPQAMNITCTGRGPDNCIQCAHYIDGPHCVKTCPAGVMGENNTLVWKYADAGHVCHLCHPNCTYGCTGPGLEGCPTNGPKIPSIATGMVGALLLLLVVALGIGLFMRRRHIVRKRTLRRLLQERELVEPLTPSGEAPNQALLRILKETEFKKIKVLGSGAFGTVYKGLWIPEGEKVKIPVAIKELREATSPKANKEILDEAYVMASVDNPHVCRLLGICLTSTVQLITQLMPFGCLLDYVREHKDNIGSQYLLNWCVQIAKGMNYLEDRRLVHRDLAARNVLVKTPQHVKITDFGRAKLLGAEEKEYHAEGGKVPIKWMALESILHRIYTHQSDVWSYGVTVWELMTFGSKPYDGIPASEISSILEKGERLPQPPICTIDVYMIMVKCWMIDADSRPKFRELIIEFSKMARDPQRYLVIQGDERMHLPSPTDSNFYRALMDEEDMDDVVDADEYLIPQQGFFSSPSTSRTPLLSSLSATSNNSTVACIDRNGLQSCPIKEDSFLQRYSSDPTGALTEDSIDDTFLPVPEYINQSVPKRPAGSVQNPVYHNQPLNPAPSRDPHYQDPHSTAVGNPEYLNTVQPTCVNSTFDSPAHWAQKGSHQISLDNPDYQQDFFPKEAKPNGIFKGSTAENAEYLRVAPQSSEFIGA

What is called IC50 is the concentration that inhibits the measured activity by half. Regarding `COc1cc2ncnc(-c3cn(C)nc3-c3ccc(F)cc3)c2cc1NC(=O)C1(CN(C)C)CC1` [Example 211, 1-((dimethylamino)methyl)-N-(4-(3-(4-fluorophenyl)-1-methyl-1H-pyrazol-4-yl)-7-methoxyquinazolin-6-yl)cyclopropane-1-carboxamide], the values for the IC50 (on EGFR L858R; in experiment [1]; on EGFR (d746-750)) were 2.8 nM, 3.3 nM and 1.5 nM, respectively.

For the compound `[2H]C([2H])([2H])Oc1cc2ncnc(-c3cnn(C([2H])([2H])[2H])c3-c3ccccc3)c2nc1NC(=O)C1(C(F)(F)F)CC1` [Example 487, N-(7-(methoxy-d3)-4-(1-(methyl-d3)-5-phenyl-1H-pyrazol-4-yl)pyrido[3,2-d]pyrimidin-6-yl)-1-(trifluoromethyl)cyclopropane-1-carboxamide], the values for the IC50 (on EGFR L858R; in experiment [1]; on EGFR (d746-750)) were 50 nM, 173 nM and 19.5 nM, respectively.

Take `Cc1nnc([C@@H](C)Oc2nc3c(-c4cn(C)nc4-c4ccccc4)ncnc3cc2OC2CC2)o1` (single isomer, unassigned) [Example 478, 2-[(1S)-1-{[7-cyclopropoxy-4-(1-methyl-3-phenyl-1H-pyrazol-4-yl)pyrido[3,2-d]pyrimidin-6-yl]oxy}ethyl]-5-methyl-1,3,4-oxadiazole or 2-[(1R)-1-{[7-cyclopropoxy-4-(1-methyl-3-phenyl-1H-pyrazol-4-yl)pyrido[3,2-d]pyrimidin-6-yl]oxy}ethyl]-5-methyl-1,3,4-oxadiazole]: the IC50 is 10.5 nM on EGFR L858R, 3.6 nM in experiment [1] and 2.8 nM on EGFR (d746-750).

`COc1cc2ncnc(-c3cn(CC(F)F)nc3-c3ccccc3)c2cc1NC(=O)c1cncs1` [Example 213, N-(4-(1-(2,2-difluoroethyl)-3-phenyl-1H-pyrazol-4-yl)-7-methoxyquinazolin-6-yl)thiazole-5-carboxamide]: the IC50 came to 0.9 nM at EGFR L858R, 0.6 nM in experiment [1] and 0.6 nM on EGFR (d746-750).

Consider `COc1cc2ncnc(-c3cn(C)nc3-c3ccccc3)c2cc1OC1CCOC1` (stereo not drawn) [Example 11, 7-methoxy-4-(1-methyl-3-phenyl-1H-pyrazol-4-yl)-6-((tetrahydrofuran-3-yl)oxy)quinazoline], for which the half-maximal inhibitory concentration (IC50) at EGFR L858R stood at 2.9 nM; in experiment [1] it was 5.1 nM; on EGFR (d746-750), 2.4 nM.

As for `Cn1cc(-c2ncnc3cc(OC(F)F)c(NC(=O)C4CC4)cc23)c(-c2ccccc2)n1` [Example 279, N-(7-(difluoromethoxy)-4-(1-methyl-3-phenyl-1H-pyrazol-4-yl)quinazolin-6-yl)cyclopropanecarboxamide], the IC50 on EGFR L858R was determined as 3.3 nM; in experiment [1] it was 6.5 nM; on EGFR (d746-750), 1.8 nM.

Take `COc1cc2ncnc(-c3cn(C)nc3-c3ccccc3)c2cc1NC(=O)C(C)(C)F` [Example 350, 2-fluoro-N-(7-methoxy-4-(1-methyl-3-phenyl-1H-pyrazol-4-yl)quinazolin-6-yl)-2-methylpropanamide]: the half-maximal inhibitory concentration (IC50) at EGFR L858R came to 3.1 nM; in experiment [1], 4.4 nM; on EGFR (d746-750), 1.5 nM.

`COc1cc2ncnc(-c3cnn(C(F)(F)F)c3-c3ccccc3)c2cc1NC(=O)C12CC(C1)C2` [Example 485, N-(7-methoxy-4-(5-phenyl-1-(trifluoromethyl)-1H-pyrazol-4-yl)quinazolin-6-yl)bicyclo[1.1.1]pentane-1-carboxamide]: the IC50 at EGFR L858R amounted to 121 nM; in experiment [1], 1210 nM; at EGFR (d746-750) it was 76.3 nM.

Turning to `CCOc1cc2ncnc(-c3cn(C)nc3-c3ccccc3)c2cc1NC(=O)[C@@]12COC[C@@H]1C2` [Example 290, (1R,5R)—N-(7-ethoxy-4-(1-methyl-3-phenyl-1H-pyrazol-4-yl)quinazolin-6-yl)-3-oxabicyclo[3.1.0]hexane-1-carboxamide], the 50% inhibitory concentration (IC50) was found to be 1.3 nM at EGFR L858R, 1.5 nM in experiment [1] and 0.9 nM at EGFR (d746-750).

Turning to `COc1cc2ncnc(-c3cn(C)nc3-c3ccccc3)c2nc1NC(=O)[C@@]1(C(F)(F)F)CCCN1C` (single isomer, unassigned) [Example 429, (R)—N-(7-methoxy-4-(1-methyl-3-phenyl-1H-pyrazol-4-yl)pyrido[3,2-d]pyrimidin-6-yl)-1-methyl-2-(trifluoromethyl) pyrrolidine-2-carboxamide or (S)—N-(7-methoxy-4-(1-methyl-3-phenyl-1H-pyrazol-4-yl)pyrido[3,2-d]pyrimidin-6-yl)-1-methyl-2-(trifluoromethyl) pyrrolidine-2-carboxamide], the IC50 at EGFR L858R was determined as 5.9 nM; in experiment [1], 11.4 nM; on EGFR (d746-750) it was 2.7 nM.

As for `COc1cc2ncnc(-c3cn(C)nc3-c3ccccc3F)c2nc1NC(=O)[C@@]12C[C@@H]1CN(C)C2` [Example 373, (1S,5S)—N-(4-(3-(2-fluorophenyl)-1-methyl-1H-pyrazol-4-yl)-7-methoxypyrido[3,2-d]pyrimidin-6-yl)-3-methyl-3-azabicyclo[3.1.0]hexane-1-carboxamide], the results for the IC50 (on EGFR L858R; in experiment [1]; on EGFR (d746-750)) were 2.2 nM, 2.3 nM and 0.8 nM, respectively.

`COc1cc2ncnc(-c3cn(C)nc3-c3ccccc3)c2cc1OC(=O)N1[C@H](C)COC[C@@H]1C` [Example 63, 7-methoxy-4-(1-methyl-3-phenyl-1H-pyrazol-4-yl)quinazolin-6-yl (3S,5R)-3,5-dimethylmorpholine-4-carboxylate]: the IC50 at EGFR L858R was 4.8 nM; in experiment [1], 2.5 nM; at EGFR (d746-750), 2.4 nM.

As to `COc1cc2ncnc(-c3cn(C)nc3-c3ccccc3)c2cc1OC(=O)N1[C@@H](C)CN(C)C[C@@H]1C` [Example 79, 7-methoxy-4-(1-methyl-3-phenyl-1H-pyrazol-4-yl)quinazolin-6-yl (2S,6S)-2,4,6-trimethylpiperazine-1-carboxylate], the IC50 at EGFR L858R is 6.5 nM; in experiment [1], 9.6 nM; on EGFR (d746-750), 3.1 nM.

Take `COc1cc2ncnc(-c3c(-c4ccccc4)nn(C)c3C)c2cc1OC(=O)N1CCN(C)C[C@@H]1C` [Example 482, 4-(1,5-dimethyl-3-phenyl-1H-pyrazol-4-yl)-7-methoxyquinazolin-6-yl(S)-2,4-dimethylpiperazine-1-carboxylate]: the IC50 at EGFR L858R is 207 nM; in experiment [1], 320 nM; at EGFR (d746-750) it was 97 nM.

As to `CCn1ccc(C(=O)Nc2cc3c(-c4cn(C)nc4-c4ccccc4)ncnc3cc2OC)n1` [Example 202, 1-ethyl-N-(7-methoxy-4-(1-methyl-3-phenyl-1H-pyrazol-4-yl)quinazolin-6-yl)-1H-pyrazole-3-carboxamide], the IC50 at EGFR L858R turned out to be 0.9 nM; in experiment [1], 0.6 nM; on EGFR (d746-750), 0.6 nM.

On to `COc1cc2ncnc(-c3cn(C)nc3-c3ccccc3)c2nc1NC(=O)[C@]12CN(C)C[C@H]1C2(F)F` (single isomer, unassigned) [Example 416, (1R,5S)-6,6-difluoro-N-(7-methoxy-4-(1-methyl-3-phenyl-1H-pyrazol-4-yl)pyrido[3,2-d]pyrimidin-6-yl)-3-methyl-3-azabicyclo[3.1.0]hexane-1-carboxamide or (1S,5R)-6,6-difluoro-N-(7-methoxy-4-(1-methyl-3-phenyl-1H-pyrazol-4-yl)pyrido[3,2-d]pyrimidin-6-yl)-3-methyl-3-azabicyclo[3.1.0]hexane-1-carboxamide], for which the IC50 came out at 1.8 nM at EGFR L858R, 0.8 nM in experiment [1] and 1 nM at EGFR (d746-750).

For `CCOc1cc2ncnc(-c3cn(C)nc3-c3ccccc3)c2cc1OC(=O)N1CCO[C@H](C)C1` [Example 73, 7-ethoxy-4-(1-methyl-3-phenyl-1H-pyrazol-4-yl)quinazolin-6-yl (R)-2-methylmorpholine-4-carboxylate], the IC50 turned out to be 2.9 nM at EGFR L858R, 11.1 nM in experiment [1] and 1.6 nM at EGFR (d746-750).

Take `CN1CCC(n2cc(-c3ccc4c(-c5cn(C)nc5-c5ccccc5)ncnc4c3)cn2)CC1` [Example 438, 4-(1-methyl-3-phenyl-1H-pyrazol-4-yl)-7-(1-(1-methylpiperidin-4-yl)-1H-pyrazol-4-yl)quinazoline]: the IC50 was determined as 1.2 nM on EGFR L858R, 0.3 nM in experiment [1] and 0.8 nM at EGFR (d746-750).

For the compound `Cn1cc(-c2ncnc3cc(C(F)(F)F)c(NC(=O)C45COCC4C5)nc23)c(-c2ccccc2)n1` (stereo not drawn) [Example 488, N-(4-(1-methyl-3-phenyl-1H-pyrazol-4-yl)-7-(trifluoromethyl)pyrido[3,2-d]pyrimidin-6-yl)-3-oxabicyclo[3.1.0]hexane-1-carboxamide], the IC50 at EGFR L858R was determined as 416 nM; in experiment [1], 981 nM; at EGFR (d746-750), 126 nM.

Regarding `COc1cc2ncnc(-c3cn(C)nc3-c3ccccc3)c2cc1O[C@H]1CCOC1` [Example 13, (S)-7-methoxy-4-(1-methyl-3-phenyl-1H-pyrazol-4-yl)-6-((tetrahydrofuran-3-yl)oxy)quinazoline], the results for the IC50 (on EGFR L858R; in experiment [1]; at EGFR (d746-750)) were 4 nM, 6.2 nM and 1.9 nM, respectively.

Regarding `COc1cc2ncnc(-c3cn(C)nc3-c3ccccc3)c2cc1O[C@H]1CN(C)C[C@@H]1F` [Example 6, 6-(((3S,4S)-4-fluoro-1-methylpyrrolidin-3-yl)oxy)-7-methoxy-4-(1-methyl-3-phenyl-1H-pyrazol-4-yl)quinazoline], the IC50 is 2.3 nM on EGFR L858R, 3.5 nM in experiment [1] and 1.7 nM on EGFR (d746-750).
